From patent US20240010726A1, “LFA-1 SIGNALLING MEDIATOR FOR USE IN CANCER THERAPY” (Universität Basel, priority 2020, published 2024)

What was measured:
[1] = test system: human EM CD8 T cells; experiment: Metabolic flux analysis, glycolytic switch of EM CD8 T cells; format: cell-based
Description: FIG. 2: Extracellular magnesium promotes memory-specific activation via LFA-1. Glycolytic switch of human EM CD8 T cells (a) and naïve CD8 T cells (b) subsets upon injection of anti-CD3 Ab only, or anti-CD3 and anti-CD28 Ab, was assessed by metabolic flux analysis in medium containing either 1.2 mM Mg^2+, 0 mM Mg^2+, or medium which was reconstituted from 0 mM to 1.2 mM Mg^2+ immediately prior to activation (0→1.2 mM Mg^2+). (a) Results for human effector memory (EM) and (b) for human naïve CD8 T cells. Glycolytic switch was quantified by subtracting […] measurements. (c) Flow cytometric analysis of surface activation markers on human EM CD8 T cells 24 hours after activation by plate-bound anti-CD3 Ab and soluble anti-CD28 Ab, in 1.2 mM and 0 mM Mg^2+ media, respectively. (d) Abundance of inflammatory cytokines in corresponding EM CD8 T cell culture supernatants, determined by CBA. (e) CD11a (LFA-1) surface expression on human naïve and EM CD8 T cells as well PHA T cell blasts. Flow cytometry-based assessment of total LFA-1 expression assessed by mAb TS2/4 (f), closed conformation of αL by mAb HI111 (g), extended conformation of LFA-1 by mAb Kim127 (h), open head-piece conformation of LFA-1 by mAb m24 (i), phosphorylation of focal adhesion kinase (FAK) […] as well TNF expression (k)±TCR-induced activation in different extracellular Mg^2+ concentrations. (l) Flow cytometry-based assessment of LFA-1 with open-head piece conformation on human EM and naïve CD8 T cells using the open head-piece reporter mAb m24. (m) Assessment of glycolytic switch of EM CD8 T cells. (n) Assessment of glycolytic switch of naïve CD8 T cells. […] FIG. 4: […] Pooled results from n=6 healthy donors from 3 independent experiments. (b) CD69 expression of PHA T cell blasts upon activation with indicated concentrations of plate-bound anti-CD3 mAb in ±Mg^2+ containing medium. […] Cytotoxicity was quantified after adding luciferin to medium and measuring luminescent signal intensity. […] Cytotoxicity was quantified after adding luciferin to medium and measuring luminescent signal intensity. […]

[2] = test system: MC38-OVA tumor cells; experiment: Murine MC38-OVA tumor model, in vivo PD-1 blockade; conditions: OVA immunized mice; 3 mM MgCl2 or NaCl i.t. every third day, 8 cycles; anti-PD-1 Ab or isotype 200 μg i.p. day 9, 12, 15
Description: FIG. 1: Intratumoral magnesium administration improves adaptive anti-tumor immunity. (a) Schematic of experimental design. B1/6 mice, either immunized with OVA or left untreated, were inoculated subcutaneously with MC38-OVA tumor cells bilaterally on the flanks. From day 7, injection of 3 mM NaCl solution was applied in left flank tumor, whereas 3 mM MgCl2 solution was injected in contralateral tumor. This regimen was repeated every third day for a total of 8 cycles. (b) Tumor growth curves in non-immunized mice (n=20) (left panel), and immunized mice (n=19) (right panel). (c) Tumor growth curves in ±CD8 depleted mice (n=6-17). Results were pooled from 2 independent experiments, with n=6-12 mice each. (d) Absolute numbers of tumor-infiltrating CD8^+ T cells. (e) Number of tumor-infiltrating CD8^+ T cells positive for Ki67 (left panel), Granzyme B (middle panel) and CD25 (right panel). (f) Cell number of tumor-infiltrating CD8^+ T cells expressing PD-1 and Tim3. (g) Schematic of experimental design. B1/6 mice, immunized with OVA, were inoculated subcutaneously with MC38-OVA tumor cells unilaterally on the flank. From day 5, intratumoral injections of either 3 mM NaCl or 3 mM MgCl2 were initiated, and repeated every third day for 8 cycles. Mice were additionally injected with 200 μg i.p. of isotype control (IgG2a) or anti-PD-1 Ab on day 9, 12, and 15. […]

What does the source list for [Mg+2] [Mg^2+, Magnesium]?
Glycolytic switch of EM CD8^+ T cells upon supra-physiologic activation ([1]; anti-CD3/anti-CD28 Ab plus secondary cross-linking Ab, 0 mM, 1.2 mM, 0→1.2 mM Mg^2+): lost; Glycolytic switch (ECAR) of EM CD8 T cells ([1]; anti-CD3 or anti-CD3/anti-CD28 Ab, 0 mM vs 1.2 mM Mg^2+): blunted; Glycolytic switch (ECAR) of EM CD8 T cells after Mg^2+ add-back ([1]; medium reconstituted 0→1.2 mM Mg^2+ immediately prior to activation): fully revertible; Host survival [2]: significantly improved animal survival; Tumor growth [2]: improving immune control significantly
